Consider four compounds from patent publication US20250320245A1, “Nucleoside Analogues for the Treatment of Parasitic Infections” (Universiteit Antwerpen, priority 2021, published 2025).

The structures appear in SMILES notation. Where two headings read alike, the source gives them in different places.

Broadly, the IC50 is the concentration needed to halve the response being measured. In general, CC50 refers to the concentration at which the toxic effect on the cells reaches its halfway point.

Common to all, as to format: cell-based
One series has as its system T. vivax (ILRAD700). In words: Ex vivo drug susceptibility assay, T. vivax. To be noted: Trypanosoma vivax. The source says:
T. congolense (IL3000), the isometamidium (ISM)-resistant T. congolense strain (MSORO M7H), T. evansi type A (RoTat 1.2), T. evansi type B (KETRI 2479) and T. equiperdum (BoTat 1.1) used for in vitro, ex vivo and in vivo experiments were kindly provided by the Institute of Tropical Medicine (ITM), and T. vivax (ILRAD700) and T. congolense (TC13) used for ex vivo and in vivo experiments, were kindly provided by the University of Brussel (VUB).
Ex Vivo Drug Susceptibility Assays for T. vivax, T. congolense ISM-Resistant, and T. evansi Type B
For Trypanosoma species/strains that were not adapted to culture conditions, donor mice were infected intraperitoneally with 10^4 parasites. Around day 5-6 post infection, blood was collected via cardiac puncture and parasites were isolated using mini-anion exchange centrifugation technique (mAECT). 4-fold dilutions of the test compounds were prepared with the highest concentration of 64 μM, and parasites were seeded at 1×10^5 parasite/well. Following 24 h of drug exposure at 37° C. and 5% CO2, resazurin was added to the wells and plates were incubated (37° C./5% CO2) for another 24 h. Cell viability was determined by fluorescence reading (Tecan®, GENios), and IC50 values were calculated by non-linear regression (dose-response curve with variable slope) using Prism 8.0 (GraphPad Software Inc., San Diego, CA, USA).

Series [1] has as its system T. evansi type A (RoTat 1.2). In words: In vitro drug susceptibility assay, T. evansi type A. To be noted: Table 3; compounds wherein X=N; type not stated; read-out: IC50 T. evansi. The protocol: (§1) Drug susceptibility assays with T. brucei (Squib 427), T. evansi type A (RoTat 1.2) and T. equiperdum (BoTat 1.1) were performed under similar conditions. Parasites were cultured in HMI-9 culture medium supplemented with 10% iFBS. To determine in vitro susceptibility of the abovementioned Trypanosoma species, 10 concentrations of a 4-fold dilution series (with a highest in-test concentration of 64 μM) was prepared for each compound, and parasites were seeded at 1.5×10^4 parasite/well. After 72 h of drug exposure at 37° C. with 5% CO2, resazurin was added to the wells (final concentration of 10 μg mL^−1), followed by another incubation for 24 h. Cell viability was determined by fluorescence reading (Tecan®, GENios) and 50% inhibitory concentration (IC50) was calculated for each compound.

Series [2] can be described thus: In vitro evaluation on PMM. To be noted: mouse, Table 3, compounds wherein X=N.
The next series concerns T. congolense (IL3000). In words: In vitro drug susceptibility assay, T. congolense. To be noted: Trypanosoma congolense; Table 3; compounds wherein X=N. The protocol: Drug susceptibility assays for T. congolense (IL3000) were performed with parasites cultured in HMI-9 medium supplemented with 15% horse serum. Parasites were seeded at a concentration of 1.5×10^4 parasite/well and exposed to a 4-fold compound dilution series starting at a highest in-test concentration of 64 μM. Plates were incubated for 72 h at 34° C. and 5% CO2, followed by the addition of resazurin (Sigma, Aldrich) and a further incubation period of 24 h. Cell viability was quantified by fluorescence reading (Tecan®, GENios), and IC50 values were calculated by non-linear regression (dose-response curve with variable slope) using Prism 8.0 (GraphPad Software Inc., San Diego, CA, USA).

Series [3] relates to T. equiperdum (BoTat 1.1). In words: In vitro drug susceptibility assay, T. equiperdum. To be noted: Trypanosoma equiperdum; Table 3; compounds wherein X=N. The protocol: as §1
Series [4] is described as follows: Cytotoxicity assay on MRC-5 fibroblasts. To be noted: human; for CC50 at 3 day: MRC-5SV2 embryonic lung fibroblasts, Table 1, mean and SEM of two independent experiments, highest concentration 64 μM, read-out: MRC-5 off-target cytotoxicity (CC50); for IC50 at 3 day: MRC-5SV2 human embryonic lung fibroblasts, Table 3, compounds wherein X=N. The procedure: MRC-5SV2 (Sigma-Aldrich/ECACC, catalogue number 84100401) human embryonic lung fibroblasts were used to perform cytotoxicity assays. The cells were cultured in minimum essential medium (MEM, Life Technologies) with Earle's salt medium, supplemented with L-glutamine, NaHCO3 and 5% inactivated fetal bovine serum (iFBS). Cells were seeded at 1.5×10^4 cells/well and 4-fold compound dilutions were immediately added with a highest in-test concentration of 64 μM. After a 3-day incubation, resazurin (Sigma-Aldrich) was added to each well (final concentration of 10 μg mL^−1), and cell viability was assessed by fluorescent reading (Tecan®, GENios) following 4 h of incubation with resazurin (37° C./5% CO2). The results were expressed as percentage reduction in cell growth/viability compared to control wells and the 50% cytotoxic concentration (CC50) was calculated for each of the compounds.

Another series concerns T. cruzi. In words: In vitro evaluation against T. cruzi. To be noted: Trypanosoma cruzi; Table 3; compounds wherein X=N.
Another series has as its system L. infantum. Kind of series: In vitro evaluation against L. infantum. To be noted: Leishmania infantum; Table 3; compounds wherein X=N.
In another series the test system is T. brucei (Squib 427). Kind of series: In vitro drug susceptibility assay, T. brucei. To be noted: Trypanosoma brucei. The procedure: as §1
The mark [5] stands for this setting: Table 1, mean and SEM of two independent experiments, read-out: T. vivax in vitro activity (IC50).
Where [6] appears, read: Table 3, compounds wherein X=N, read-out: IC50 T. vivax.
The mark [7] stands for this setting: Table 1, mean and SEM of two independent experiments, read-out: T. brucei in vitro activity (IC50).
The mark [8] stands for this setting: Table 3, compounds wherein X=N, read-out: IC50 T. brucei.

Regarding `CCCCSc1ncnc2c1cnn2[C@@H]1O[C@H](CO)[C@@H](O)[C@H]1O` [JB1033, 4-butylthio-1-β-D-ribofuranosyl-1H-pyrazolo[3,4-d]pyrimidine], the IC50 with T. vivax (ILRAD700) (setting [5]) was 1210 ± 420 nM; with T. vivax (ILRAD700) (setting [6]), 1200 nM; in series [1], 60 nM; in series [2], greater than 64 µM; in the series with T. congolense (IL3000), 200 nM; in [3], 10 nM. For the same compound, the IC50 in the series on T. cruzi was found to be 7.46 µM; in the series on L. infantum, 7.25 µM; in the series with T. brucei (Squib 427) (setting [7]), 260 ± 10 nM; in the series with T. brucei (Squib 427) (setting [8]), 110 nM. The CC50 at 3 day in series [4] is greater than 64 µM. The same compound had an IC50 at 3 day in series [4] greater than 64 µM.

Take `CSc1ncnc2c1cnn2[C@@H]1O[C@H](CO)[C@@H](O)[C@H]1O` [JB1031, 4-methylthio-1-β-D-ribofuranosyl-1H-pyrazolo[3,4-d]pyrimidine]: the IC50 with T. vivax (ILRAD700) (setting [6]) was 830 nM; in [1], 610 nM; in series [2], greater than 64 µM; in the series with T. congolense (IL3000), 70 nM; in series [3], 90 nM; in the series on T. cruzi it was 2.15 µM. For the same compound, the IC50 in the series on L. infantum worked out at 10.8 µM; with T. brucei (Squib 427) (setting [8]), 540 nM. For the same compound, the IC50 at 3 day in series [4] is greater than 64 µM.

With `CCSc1ncnc2c1cnn2[C@@H]1O[C@H](CO)[C@@H](O)[C@H]1O` [JB1032, 4-ethylthio-1-β-D-ribofuranosyl-1H-pyrazolo[3,4-d]pyrimidine], the IC50 in the series with T. vivax (ILRAD700) (setting [5]) is 1360 ± 300 nM; in the series with T. vivax (ILRAD700) (setting [6]), 1420 nM; in [1], 390 nM; in series [2], greater than 64 µM; with T. congolense (IL3000) it was 290 nM; in series [3], 50 nM. Besides, the IC50 in the series with T. cruzi is 5.61 µM; in the series with L. infantum, 5.04 µM; in the series with T. brucei (Squib 427) (setting [7]), 510 ± 50 nM; in the series on T. brucei (Squib 427) (setting [8]), 450 nM. Besides, the CC50 at 3 day in series [4] was greater than 64 µM. This compound also registered an IC50 at 3 day in series [4] greater than 64 µM.

On to `OC[C@H]1O[C@@H](n2ncc3c(SCc4ccccc4)ncnc32)[C@H](O)[C@@H]1O` [JB1034, 4-benzylthio-1-β-D-ribofuranosyl-1H-pyrazolo[3,4-d]pyrimidine], for which the 50% inhibitory concentration (IC50) in the series with T. vivax (ILRAD700) (setting [6]) was 7240 nM; in series [1], 100 nM; in series [2], greater than 64 µM; in the series with T. congolense (IL3000) it was 30 nM; in series [3], 20 nM; in the series with T. cruzi, 6.02 µM. Besides, the IC50 is 10.1 µM with L. infantum and 50 nM in the series with T. brucei (Squib 427) (setting [8]). The compound further gave an IC50 at 3 day in series [4] greater than 64 µM.
